Here are results for 16 compounds from patent US20250304551A1 (SHANGHAI APEIRON THERAPEUTICS COMPANY LIMITED, priority 2022, published 2025).

pIC50: −log10 of the molar value.

Assay [1] addresses T1, Human KIF18A (amino acid sequence 1-417) (Homo sapiens, UniProt Q8NI77).
T1 construct: purchased Viva Biotech (Shanghai) Ltd
In words: Enzyme activity detection experiment (ADP-Glo, KIF18A with tubulin and ATP). Format: biochemical. Conditions: tubulin 60 μg/mL, ATP 25 μM, KIF18A protein 2.5 nM, 120 minutes at ambient temperature, ADP-Glo chemiluminescence. The procedure, abridged:
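KIF18A (2.5 nM) was incubated with tubulin (60 μg/mL as added), ATP (25 μM) and serially diluted compound for 120 min at ambient temperature. ADP formed was detected by ADP-Glo: reagent for 30 min, then detection reagent for 30 min in the dark, with chemiluminescence read-out.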
Background: ADP-Glo first removes unused ATP, then detects ADP through luciferase.

The test system of assay [2] is OVCAR3 cells. As to the kind of experiment: Cell proliferation activity test, OVCAR3 (CyQUANT Direct). Format: cell-based. Conditions: Homo sapiens, OVCAR-3, 72 h, 3 days incubation, CyQUANT fluorescence detection, read-out: OVCAR-3 Cell Viability_IC50_nM. Put shortly: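 OVCAR3 cells seeded overnight, then exposed to compounds at 0-10 μM final (0.20% DMSO) for 3 days at 37° C. Cell number read by CyQUANT Direct fluorescence after 60 min at 37° C.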

Assay [3] relates to HT29 cells. In words: CyQuant cell proliferation activity test, HT29. As to conditions: Homo sapiens, HT-29, 72 h, HT29 2000 cells per well, 3 days incubation, initial concentration 3000 nM, IC50 by XLFIT, read-out: HT-29 Cell Viability_IC50_nM. Format: cell-based. Here is the method:
Materials and Cells: HT29 cells were purchased from Nanjing Cobioer Biosciences Co., Ltd.; RPM-1640 medium, fetal bovine serum, Trypsin-EDTA (0.25%), DMSO, 96-well plates, and CyQuant reagents were purchased from ThermoFisher (USA).
Cell Culture: Culture HT29 cells with RPMI-1640 containing 10% fetal bovine serum under the condition of 37° C. and 5% CO2. Only cells in the logarithmic growth phase can be used for the test.
Cell Proliferation Activity Test: Use the CyQuant reagent to detect the proliferation inhibitory activity of compounds on HT29 cells. Adjust the cell density and inoculate 100 μL per well into the 96-well plate (HT29 at 2000 cells per well), then incubate overnight under the condition of 37° C. and […]. Add compounds of various target concentrations (initial concentration of 3000 nM, 3-fold dilution, 9 concentration gradients), and make the DMSO content 0.20%. Incubate the cell plates at 37° C. and 5% CO2 for 3 days. Incubate with CyQuant reagent for 1 h, read the plate by Envision, and calculate IC50 using XLFIT.

T1 sequence (Q8NI77 1-417): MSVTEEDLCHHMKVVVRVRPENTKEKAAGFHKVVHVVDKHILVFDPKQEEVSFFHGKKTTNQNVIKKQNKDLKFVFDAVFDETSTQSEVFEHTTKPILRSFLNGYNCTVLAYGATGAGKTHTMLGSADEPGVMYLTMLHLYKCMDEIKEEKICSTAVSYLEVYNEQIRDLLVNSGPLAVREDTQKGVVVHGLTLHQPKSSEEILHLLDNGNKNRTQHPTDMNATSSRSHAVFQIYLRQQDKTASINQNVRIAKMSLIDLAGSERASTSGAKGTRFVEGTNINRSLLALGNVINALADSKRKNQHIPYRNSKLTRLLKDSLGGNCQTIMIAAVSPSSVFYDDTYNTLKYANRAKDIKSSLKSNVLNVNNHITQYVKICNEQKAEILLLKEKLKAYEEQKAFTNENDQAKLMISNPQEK
T1 sequence (Q2XVP4 whole entry partner): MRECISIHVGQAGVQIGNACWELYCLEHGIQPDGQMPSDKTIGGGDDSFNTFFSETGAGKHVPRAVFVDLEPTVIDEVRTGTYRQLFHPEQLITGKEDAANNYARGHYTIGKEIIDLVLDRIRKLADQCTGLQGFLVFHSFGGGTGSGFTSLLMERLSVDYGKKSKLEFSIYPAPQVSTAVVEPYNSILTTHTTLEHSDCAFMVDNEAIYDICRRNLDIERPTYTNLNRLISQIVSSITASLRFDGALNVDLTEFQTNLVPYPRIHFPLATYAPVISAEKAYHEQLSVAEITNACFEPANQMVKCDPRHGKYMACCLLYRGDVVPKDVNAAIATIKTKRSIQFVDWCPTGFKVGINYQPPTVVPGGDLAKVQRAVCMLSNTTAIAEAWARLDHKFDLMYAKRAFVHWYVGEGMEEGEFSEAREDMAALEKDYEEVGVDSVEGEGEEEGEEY
T1 sequence (P02554 whole entry partner): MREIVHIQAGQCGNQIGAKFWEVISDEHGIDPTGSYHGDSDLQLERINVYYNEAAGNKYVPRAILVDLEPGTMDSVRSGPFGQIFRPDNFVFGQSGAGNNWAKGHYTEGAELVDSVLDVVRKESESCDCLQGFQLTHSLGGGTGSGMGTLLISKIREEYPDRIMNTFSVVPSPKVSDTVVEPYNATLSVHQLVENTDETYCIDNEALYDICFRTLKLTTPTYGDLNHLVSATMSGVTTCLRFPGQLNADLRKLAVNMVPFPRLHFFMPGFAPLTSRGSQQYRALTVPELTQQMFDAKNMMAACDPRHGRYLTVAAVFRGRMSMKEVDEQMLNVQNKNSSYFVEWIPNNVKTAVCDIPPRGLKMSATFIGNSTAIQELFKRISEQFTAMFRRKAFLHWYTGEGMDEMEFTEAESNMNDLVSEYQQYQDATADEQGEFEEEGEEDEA

For `Cc1cc(-c2cn(-c3ccc(NS(=O)(=O)CCO)cc3N3CCC4(CC3)CC4)cn2)nc(N2CCC(F)(F)CC2)n1` [Example 10, N-(4-(4-(2-(4,4-difluoropiperidin-1-yl)-6-methylpyrimidin-4-yl)-1H-imidazol-1-yl)-3-(6-azaspiro[2.5]octan-6-yl)phenyl)-2-hydroxyethane-1-sulfonamide], the results for the pIC50 in assay [1], in assay [2] and in assay [3] were 6.60, 7.34 and 7.25, respectively.

Take `Cc1cc(-n2nnc(-c3ccc(NS(=O)(=O)CCO)cc3N3CCC4(CC3)CC4)n2)cc(N2CCC(F)(F)CC2)n1` [Example 9, N-(4-(2-(2-(4,4-difluoropiperidin-1-yl)-6-methylpyridin-4-yl)-2H-tetrazol-5-yl)-3-(6-azaspiro[2.5]octan-6-yl)phenyl)-2-hydroxyethane-1-sulfonamide]: the results for the pIC50 in assay [1], in assay [2] and in assay [3] were 6.51, 6.97 and 6.78, respectively.

Consider `COc1cc(-c2cn(-c3ccc(NS(=O)(=O)CCO)cc3N3CCC4(CC3)CC4)nn2)cc(N2CCC(F)(F)CC2)n1` [Example 62, N-(4-(4-(2-(4,4-difluoropiperidin-1-yl)-6-methoxypyridin-4-yl)-1H-1,2,3-triazol-1-yl)-3-(6-azaspiro[2.5]octan-6-yl)phenyl)-2-hydroxyethane-1-sulfonamide], for which the pIC50 in assay [1] is 6.57; in assay [2], 7.23; in assay [3] it was 7.22.

Consider `COc1cc(-n2cc(-c3ccc(NS(=O)(=O)CCO)cc3N3CCC4(CC3)CC4)nn2)nc(N2CCC(F)(F)CC2)n1` [Example 90, N-(3-{6-azaspiro[2.5]octan-6-yl}-4-{1-[2-(4,4-difluoropiperidin-1-yl)-6-methoxypyrimidin-4-yl]-1H-1,2,3-triazol-4-yl}phenyl)-2-hydroxyethane-1-sulfonamide], for which the figures for the pIC50 in assay [1], in assay [2] and in assay [3] were 7.80, 7.36 and 7.21, respectively.

On to `O=S(=O)(CCO)Nc1ccc(-c2nnc(-c3cc4cccn4c(N4CCC(F)(F)CC4)n3)o2)c(N2CCC3(CC2)CC3)c1` [Example 32], for which the pIC50 was 6.95 in assay [1], 6.73 in assay [2] and 6.60 in assay [3].

Consider `Cc1cc(-c2cn(-c3ccc(NS(=O)(=O)CCO)cc3N3CCC4(CC3)CC4)nn2)nc(N2C3COCC2C3)n1` [Example 49, N-(4-(4-(2-(3-oxa-6-azabicyclo[3.1.1]heptan-6-yl)-6-methylpyrimidin-4-yl)-1H-1,2,3-triazol-1-yl)-3-(6-azaspiro[2.5]octan-6-yl)phenyl)-2-hydroxyethane-1-sulfonamide], for which the pIC50 was 7.21 in assay [1], 7.27 in assay [2] and 7.51 in assay [3].

Regarding `O=S(=O)(CCO)Nc1ccc(-n2cc(-c3cc(NCc4ccccn4)nc(N4CCC(F)(F)CC4)n3)nn2)c(N2CCC3(CC2)CC3)c1` [Example 59, N-(3-{6-azaspiro[2.5]octan-6-yl}-4-{4-[2-(4,4-difluoropiperidin-1-yl)-6-{[(pyridine-2-yl)methyl]amino}pyrimidin-4-yl]-1H-1,2,3-triazol-1-yl}phenyl)-2-hydroxyethane-1-sulfonamide], the pIC50 is 6.36 in assay [1], 7.59 in assay [2] and 7.47 in assay [3].

With `COc1cc(-c2cn(-c3ccc(NS(=O)(=O)CCO)cc3N3CCC4(CC3)CC4)cn2)nc(N2CCC(F)(F)CC2)n1` [Example 11, N-(4-(4-(2-(4,4-difluoropiperidin-1-yl)-6-methoxypyrimidin-4-yl)-1H-imidazol-1-yl)-3-(6-azaspiro[2.5]octan-6-yl)phenyl)-2-hydroxyethane-1-sulfonamide], the pIC50 is 6.60 in assay [1], 6.79 in assay [2] and 6.50 in assay [3].

With `Cc1cc(-n2cnc(-c3ccc(NS(=O)(=O)CCO)cc3N3CCC4(CC3)CC4)c2)nc(N2CCC(F)(F)CC2)n1` [Example 12, N-(4-(1-(2-(4,4-difluoropiperidin-1-yl)-6-methylpyrimidin-4-yl)-1H-imidazol-4-yl)-3-(6-azaspiro[2.5]octan-6-yl)phenyl)-2-hydroxyethane-1-sulfonamide], the results for the pIC50 in assay [1], in assay [2] and in assay [3] were < 5.52, 6.33 and 6.25, respectively.

For the compound `Nc1nc2c(N3CCC(F)(F)CC3)c(F)c(-c3cn(-c4ccc(NS(=O)(=O)CCO)cc4N4CCC5(CC4)CC5)nn3)cc2s1` [Example 81, N-(4-{4-[2-amino-4-(4,4-difluoropiperidin-1-yl)-5-fluoro-1,3-benzothiazol-6-yl]-1H-1,2,3-triazol-1-yl}-3-{6-azaspiro[2.5]octan-6-yl}phenyl)-2-hydroxyethane-1-sulfonamide], the pIC50 in assay [1] was 6.15; in assay [2], 7.70; in assay [3], 7.52.

Take `O=S(=O)(CCO)Nc1ccc(-c2nnc(-c3cc4cccnc4c(N4CCC(F)(F)CC4)n3)o2)c(N2CCC3(CC2)CC3)c1` [Example 29, N-(4-(5-(8-(4,4-difluoropiperidin-1-yl)-1,7-naphthyridin-6-yl)-1,3,4-oxadiazol-2-yl)-3-(6-azaspiro[2.5]octan-6-yl)phenyl)-2-hydroxyethanesulfonamide]: the figures for the pIC50 in assay [1], in assay [2] and in assay [3] were 7.32, 7.43 and 7.35, respectively.

With `Nc1cc2cc(-c3cn(-c4ccc(NS(=O)(=O)CCO)cc4N4CCC5(CC4)CC5)nn3)cc(N3CCC(F)(F)CC3)c2nn1` [Example 77, N-(4-(4-(3-amino-8-(4,4-difluoropiperidin-1-yl)cinnolin-6-yl)-1H-1,2,3-triazol-1-yl)-3-(6-azaspiro[2.5]octan-6-yl)phenyl)-2-hydroxyethane-1-sulfonamide], the pIC50 is 7.19 in assay [1], 7.89 in assay [2] and 7.92 in assay [3].

Consider `O=S(=O)(CCO)Nc1ccc(-c2nnc(-c3cc4ccoc4c(N4CCC(F)(F)CC4)n3)o2)c(N2CCC3(CC2)CC3)c1` [Example 33], for which the pIC50 in assay [1] was 7.21; in assay [2], 7.47; in assay [3] it was 7.19.

As to `O=S(=O)(CCO)Nc1ccc(-n2cc(-c3cc(NC4CCOCC4)nc(N4CCC(F)(F)CC4)n3)nn2)c(N2CCC3(CC2)CC3)c1` [Example 58, N-(3-{6-azaspiro[2,5]octan-6-yl}-4-{4-[2-(4,4-difluoropiperidin-1-yl)-6-[(oxan-4-yl)amino]pyrimidin-4-yl]-1H-1,2,3-triazol-1-yl}phenyl)-2-hydroxyethane-1-sulfonamide], the pIC50 in assay [1] is 6.11; in assay [2] it was 6.65; in assay [3] it was 6.54.

With `Cc1cc(-c2nnc(-c3ccc(NS(=O)(=O)CCO)cc3N3CCC4(CC3)CC4)o2)nc(N2CCC(C)(O)CC2)n1` [Example 19, 2-hydroxy-N-(4-(5-(2-(4-hydroxy-4-methylpiperidin-1-yl)-6-methylpyrimidin-4-yl)-1,3,4-oxadiazol-2-yl)-3-(6-azaspiro[2.5]octan-6-yl)phenyl)ethane-1-sulfonamide], the figures for the pIC50 in assay [1], in assay [2] and in assay [3] were 6.20, 5.85 and < 5.52, respectively.

Turning to `CN(C)c1cc(-c2cn(-c3ccc(NS(=O)(=O)CCO)cc3N3CCC4(CC3)CC4)nn2)nc(N2CCC(F)(F)CC2)n1` [Example 54, N-(3-{6-azaspiro[2.5]octan-6-yl}-4-{4-[2-(4,4-difluoropiperidin-1-yl)-6-(dimethylamino)pyrimidin-4-yl]-1H-1,2,3-triazol-1-yl}phenyl)-2-hydroxyethane-1-sulfonamide], the pIC50 in assay [1] is 6.56; in assay [2] it was 7.08; in assay [3], 7.14.
